Consider 2 compounds from patent US10064843B2, “Bis-amide derivative and use thereof” (University-Industry Cooperation Group of Kyung Hee …, priority 2013, dated 2018).

One assay has as its target T1, CypA (Homo sapiens, UniProt P62937).
T1 construct: GST (N, cleaved yes); made in house; host or cells: E. coli (pGEX-KG)
As to the kind of experiment: PPIase activity of CypA, coupled chymotrypsin analysis. Format: biochemical. The conditions noted are these: FIG. 7a; read-out: IC50 PPIase activity of CypA. On the procedure: Example 5: Analysis of Peptidyl-Prolyl Cis-Trans Isomerase Activity
The PPIase activity of CypA was determined according to a known method using the coupled chymotrypsin analysis.
The cis-trans isomerization was measured by absorbance at 390 nm in a spectrophotometer. Additionally, the remaining percentage of enzyme activity was measured at different concentrations of the inhibitor to calculate the 50% inhibition concentration (IC50) to the PPIase activity. Data was optimized via graphs by exporting using Graph Pad Prism 5.

The test system of the next assay is HCV replicon cells. As to the kind of experiment: Luciferase activity in HCV replicon cells. It is filed as cell-based. The conditions noted are these: Hepatitis C virus; 2 μM, 72 hours; FIG. 6; read-out: inhibition of luciferase activity of HCV. On the procedure:
Additionally, a series of compounds (WJCPA-1 to WJCPA-135) having the bis-amide structure as a parent structure in common, based on the inhibitory effect of WJCPA-126 against the PPIase activity, were synthesized and their activities were confirmed. Specifically, Huh7-rep cells were treated with each of the compounds at a concentration of 2 μM for 3 days, and the expression level of NS5A was confirmed by performing an immunoblot analysis according to a known method (FIG. 5). The 32 kinds of compounds confirmed to have excellent inhibitory effect especially against the NS5A expression from the immunoblot experiment were measured regarding their inhibitory effect against luciferase activity and the results are illustrated in FIG. 6. In the same manner as in western blot, the HCV replicon cells were treated with each of the compounds at a concentration of 2 μM and incubated for 72 hours, and the total cell lysate of the cultured cells were used for the analyses of western blot and the activity of luciferase.
On the technique in general: Replicon systems follow genome replication, usually without infectious particles.

T1 sequence (P62937 whole entry): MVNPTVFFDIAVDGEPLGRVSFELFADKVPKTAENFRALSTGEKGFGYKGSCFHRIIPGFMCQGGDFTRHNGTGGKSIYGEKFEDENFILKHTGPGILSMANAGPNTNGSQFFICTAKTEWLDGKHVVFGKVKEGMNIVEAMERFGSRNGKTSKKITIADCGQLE

By IC50 is commonly meant the concentration at which inhibition is half-maximal. For `COc1ccc(CCC(=O)N(c2ccc(Br)cc2)C(C(=O)NC2CCCCC2)c2ccc([N+](=O)[O-])cc2)cc1` (stereo not drawn) [WJCPA133, N-(4-bromo-phenyl)-N-[cyclohexylcarbamoyl-(4-nitro-phenyl)-methyl]-3-(4-methoxy-phenyl)-propionamide], the IC50 at CypA was 11.2 nM. What is called inhibition is the change of the read-out against control, counted positive when it falls. As for `Cc1ccc(C)c(C(=O)N(c2ccc(C(C)C)cc2)C(C(=O)NC2CCCCC2)c2ccc(Cl)cc2)c1` (stereo not drawn) [WJCPA30, N-[(4-chloro-phenyl)-cyclohexylcarbamoyl-methyl]-N-(4-isopropyl-phenyl)-2,5-dimethyl-benzamide], at CypA, the IC50 amounted to 10.6 nM. Also, in the assay on HCV replicon cells, the inhibition at 2 µM is no more than 80%.
